Data: US20120328605A1, “COMPOSITIONS AND USES” (priority 2010, published 2012)
Where no end group is shown, it is not given here. The star is where a group is joined. Pam3Cys = N-terminal lipid (lipidation), CCCCCCCCCCCCCCCC(=O)N[C@@H](CSCC(COC(=O)CCCCCCCCCCCCCCC)OC(=O)CCCCCCCCCCCCCCC)C(=O)*

Tests used:
PDAPP mice = details: immunization of young PDAPP mice; cited from earlier work
Aβ42 = Aβ42 specific immunogenicity in the amyloid deposition mouse model; type: in vivo, TASTPM mice; details: 12 injections of 10 ug, intramuscular route; FIG. 29
Protocol: Whole blood is collected from mice and centrifuged on a vacutainer blood collection tube containing gel for serum separation. Serum samples are stored at −80° C. Streptavidin-coated plates (Greiner Bio-One, Germany) are first coated with beta-amyloid (1-42)-Lys(Biotin)-NH2 peptide (Anaspec, Inc.) at 0.5 μg/mL, using 50 mM sodium carbonate buffer, overnight at 4° C. Plates are then washed using a 4 times using PBS/0.05% Tween 20. Super Block (ScyTek laboratories) is added to the plates and incubated at 37° C. for at least one hour. Serum samples and standard (anti Aβ42 antibody (6E10 antibody, Covance, Inc.) are serially diluted in the plates and incubated at 37° C. for 2 hours. After a wash step, diluted peroxidase AffiniPure goat anti-mouse IgG, Fcγ fragment specific (Jackson ImmunoResearch Laboratories Inc.) is added for 1 hour at 37° C. A last wash is performed before adding TMB substrate reagent (BD OptEIA™, BD Biosciences) for 30 min at RT. Immediately, plates are stopped using 2N sulfuric acid, and then read at 450 nm using SpectraMax microplate reader (Molecular Devices, Inc.).

TASTPM mice = experiment: T-water maze test in TASTPM; type: in vivo; details: 12 weekly i.m. injections; FIG. 30
Protocol: To determine whether a TLR2 agonist will improve the cognitive impairment in TASTPM mice, the Pam3CysLip adjuvant fused to the Aβ1-6 peptide was injected 12 times at weekly basis using the intramuscular route and the memory was assessed using the T-water maze test. […] TASTPM mice have received one a week for a period of 12 weeks the following treatment: PBS or mice have received once a week for a period of 12 weeks the following treatment: PBS or of Pam3CysLip Aβ1-6 peptide.

APPSwe/PS1 mice = experiment: T-water maze; type: in vivo; details: Example 21: twelve weekly injections; CRX527, CRX601 20 μg i.p., 3D MPL 50 μg i.p., AS01B 1/10th human dose i.m.; FIG. 24
Protocol: Five groups of APPSwe/PS1 mice received one a week for a period of 12 weeks the following treatment: • Gr1: APPSwe/PS1+NaCl 0.9% n(=20), i.p. injections • Gr4: APPSwe/PS1+CRX527 (20 μg/mouse, 130 μl, n=10), i.p. injections • Gr5: […] (50 μg/mouse, 130 μl, n=10), i.p. injections • Gr8 APPSwe/PS1+AS15 ( 1/10th of human dose, 50 μl, n=10), i.m. injections • Gr9: APPSwe/PS1+AS01B ( 1/10th of human dose, 50 μl, n=10), i.m. injections
Mice were tested during the “light on” phase of the day. Behavioral experimenter was blinded to the genetic and treatment status of animals. To assess hippocampal-dependent spatial learning and memory, mice were trained in the T-water maze task. In this paradigm, we evaluate the mouse's ability to remember the spatial location of submerged platform. The T-maze apparatus (length of stem, 64 cm; length of arms, 30 cm; width, 12 cm; height of walls, 16 cm) was made of clear fiberglass and filled with water (23±1° C.) at a height of 12 cm. A platform (11×11 cm) was placed at the end of the target arm and was submerged 1 cm below the surface. The acquisition phase allows to evaluate animals for left-right spatial learning. During the first two trials, platforms were placed on each arms of the maze to test the spontaneous turning preference of the mouse. After these two trials, the least chosen arm was reinforced by the escape platform. The mice were placed in the stem of the T-maze and choose to swim either left or right until they found the submerged platform and escape to it, to a maximum of 60 s. After reaching the platform, the mice remained on it for 20 s and then were immediately placed back in the maze. […] Repeated trials were presented on the same day up to a maximum of 48 trials. A rest period of at least 10-15 min intervened between each block of 10 trials. A mouse was considered to have learned the task when it made no errors in a block of five consecutive trials. […] The number of trials to reach the criterion (five of five correct choices made on consecutive trials) was measured as well as the latency to find the escape platform.

Lineage-CD11b+ monocytes = experiment: Monocyte analysis and counting after adjuvant injection in mice; type: in vivo, C57BL/6 mice
Protocol: (§1) 24-Hours after injection of the TLR adjuvants, peripheral blood was drawn from C57BL/6 mice via cardiac puncture with lithium-heparin as anticoagulant. Red blood cell lysis was performed twice on pooled blood with Ammonium Chloride-based Buffer (Sigma, Steinheim, Germany) and cells were counted with the EasyCount™ System (Immunicon). […] Cells were finally washed three times and fixed for 15 min. with a 2% paraformaldehyde solution in PBS. Fluorescence minus one (FMO) controls were always included in the assays for fluorescent compensation setting. Samples were acquired on a flow cytometer (BD FACSCanto II) and data analyzed with the FACSDiva software (BD Biosciences). Monocytes were identified by their Side/Forward scatter properties and gated as CD3-/CD45R/B220-/Ly-6G-/NK1.1-(Lineage-)/CD11b+ cells. CD11b+ monocyte frequency was reported as a percentage of the total cells excluding debris.
as §1, with “24 hours” for “24-Hours”, “each immunomodulator,” for “the TLR adjuvants,”, “min” for “min.”, “monocytes” for “monocyte”

BV2 microglia cells = experiment: In vitro phagocytosis of Aβ1-42 in BV2 cells, Western blot; type: cell-based, mouse; details: 5 μg/mL cytochalasin D; FIG. 16
Protocol: For total Aβ detection, 10-30 μg of cell extracts were separated on a precast 10-20% SDS polyacrylamide Tris-Tricine gel (Bio-Rad, Canada). Separated proteins were then transferred onto polyvinylidene fluoride (PVDF) membranes (PerkinElmer, Canada). Membrane were incubated in DPBS (Gibco, USA) at 90° C. for 10 min. Membrane were then incubated for 1 hour in blocking solution, which consist in TBS-T (50 mM Tris-HCl pH 8,0; 150 mM NaCl; 0.05% Tween 20) supplemented with 1% BSA (Sigma, Canada) and 5% non-fat dry milk, and probed for 16 hours at 4° C. with a mouse anti-amyloid beta protein monoclonal antibody clone 6E10 (Covance, USA) diluted to 1:1000 in TBS-T supplemented with 5% BSA and 0.02% sodium azide. Membranes were washed once for 15 min and three times for 5 min in TBS-T at room temperature. […] Films were digitalized using a HP Scanjet 4370 (HP) and signal intensity was measured using ImageJ (version 1.44p, NIH).
Aβ specific antibodies stimulate the uptake of soluble Aβ1-42 toxic peptides in an actin polymerization-dependent mechanism. […] Cells were incubated for the indicated period of time, resuspended by trypsinization, collected, solubilised in lysis buffer and further analyzed by immunoblotting. […]

[1] = system: human microglial cell line CHME; experiment: Phagocytosis of beta-amyloid 1-42 peptide by CHME cells; type: cell-based; details: Pam3Cys lip peptide 5 ug per ml, FIG. 18
Protocol: Phagocytosis of beta-amyloid 1-42 peptide by the human microglial cell line CHME was observed after the addition of TLR2 agonist containing adjuvants Protollin and Pam3CysLip peptide. […] The synthetic peptide sequence of the Pam3Cys Lip peptide is described herein: Pam3Cys-SQ EPAAPAAEAT PAAEAP. Protollin was used at concentration 1 ug per ml based on the LPS content from Shigella flexneri. Pam3Cys lip peptide was used at concentration of 5 ug per ml of the pure tri-palmitoylated peptide.
Additionally, cells were imaged using 42 HiLyte 488 Fluo (Anaspec, Inc.) at 2 ug per ml in DMEM complete media (Invitrogen). Lysotracker red staining was performed and slides were mounted and co-stained with DAPI to show the nucleus (blue). […] Lysotracker red reagent was purchased from Invitrogen and used as manufacturer recommendations.

**Q.** For “synthetic human Aβ1-42: synthetic human Aβ1-42 used to immunize PDAPP mice”, which AD-like neuropathologies (PDAPP mice) is on record?
**A.** reduce the extent and progression

**Q.** Which results are given for “Pam3Cys-SQ EPAAPAAEAT PAAEAPDAEFRH (Pam3Cys-SQEPAAPAAEATPAAEAPDAEFRH) [Pam3CysLip Aβ1-6 peptide]”?
**A.** anti Aβ42 specific immunogenicity (Aβ42): High and specific anti Aβ42 specific immunogenicity; right-left discrimination tests (T-water maze) vs PBS injected group (TASTPM mice): trend of improvement

**Q.** For CCCCCCCCCCC[C@H](CC(=O)N[C@H]1[C@H](OC[C@H](NC(=O)C[C@@H](CCCCCCCCCCC)OC(=O)CCCCCCCCC)C(=O)O)O[C@H](CO)[C@@H](OP(=O)(O)O)[C@@H]1OC(=O)C[C@@H](CCCCCCCCCCC)OC(=O)CCCCCCCCC)OC(=O)CCCCCCCCC [CRX527], which “behaviour as assessed by T water maze testing” value (APPSwe/PS1 mice) is on record?
**A.** significant improvements in behaviour

**Q.** And the “circulating monocytes numbers following injection” value (Lineage-CD11b+ monocytes; i.m. or i.p. routes, doses of b403, FIG. 9)?
**A.** Upregulation of circulating monocytes numbers

**Q.** For C=C1[C@@H](C)[C@H]2[C@H](Cc3ccccc3)NC(=O)[C@]23[C@H](OC(C)=O)/C=C/[C@@](C)(O)C(=O)[C@@H](C)C/C=C/[C@H]3[C@@H]1O [cytochalasin D], which “effect on 2E7-increased cellular uptake of Aβ1-42” value (BV2 microglia cells) is on record?
**A.** inhibited

**Q.** What does the source list for QS21 [reference compound]?
**A.** activated Ly6C+ monocytes (Lineage-CD11b+ monocytes; single i.m. injection, 24 hrs, FIG. 19B): 75%; number of monocytes, % of total peripheral white blood cells (Lineage-CD11b+ monocytes; single i.m. injection, after 24 hrs, QS21 5 μg, FIG. 19A): 9.1%

**Q.** What does the source list for “Pam3Cys-SQ EPAAPAAEAT PAAEAP (Pam3Cys-SQEPAAPAAEATPAAEAP) [Pam3CysLip peptide, TLR2 agonist, tri-palmitoylated peptide from Neisseria meningitidis strain 8047]”?
**A.** phagocytosis ([1]; pre-incubation 18 hrs): 86 % of cells; phagocytosis of Aβ1-42 by CHME ([1]; Protollin 1 ug per ml (LPS content), 18 hrs, vs PBS): higher amyloid phagocytic activity
